Reference: ChEMBL document CHEMBL1123592, “Cluster significance analysis contrasted with three other quantitative structure-activity relationship methods” (J Med Chem, 1987)

Assays:
[1] = Partition coefficient (logP); format: physicochemical; conditions: octanol/water
[2] = In vitro antibacterial activity was determined; antibacterial potency is less than 50% of that of lasalocid; format: functional
[3] = Dissociation constant was determined; format: physicochemical
[4] = In vitro antibacterial activity was determined; format: functional

Row | Structure (SMILES) | logP [1] | Activity [2] | pKa [3] | Activity [4]
1 | CC[C@@H](C(=O)[C@@H](C)[C@@H](O)[C@H](C)CCc1c(/N=C/c2ccccc2)cc(C)c(O)c1C(=O)O)[C@H]1O[C@](CC)([C@H]2CC[C@](O)(CC)[C@H](C)O2)C[C@@H]1C | 0.86 | 0 | – | –
2 | CC[C@@H](C(=O)[C@@H](C)[C@@H](O)[C@H](C)CCc1c(N)cc(C)c(O)c1C(=O)O)[C@H]1O[C@](CC)([C@H]2CC[C@](O)(CC)[C@H](C)O2)C[C@@H]1C [AMINOLASALOCID] | 0.28 | 0 | 6 | –
3 | CC[C@@H](C(=O)[C@@H](C)[C@@H](O)[C@H](C)CCc1ccc(C)c(O)c1C(=O)O)[C@H]1O[C@](CC)([C@H]2CC[C@](O)(CC)[C@H](C)O2)C[C@@H]1C [LASALOCID] | 2.83 | – | 4.4 | 1
4 | CCCCCCCCCC(=O)Oc1c(C)ccc(CC[C@@H](C)[C@H](O)[C@H](C)C(=O)[C@H](CC)[C@H]2O[C@](CC)([C@H]3CC[C@](O)(CC)[C@H](C)O3)C[C@@H]2C)c1C(=O)O | 2.75 | 0 | – | –
5 | CC[C@@H](C(=O)[C@@H](C)[C@@H](O)[C@H](C)CCc1c(Cl)cc(C)c(O)c1C(=O)O)[C@H]1O[C@](CC)([C@H]2CC[C@](O)(CC)[C@H](C)O2)C[C@@H]1C [CHLOROLASALOCID] | 3.12 | – | 4 | 1
6 | CC[C@@H](C(=O)[C@@H](C)[C@@H](O)[C@H](C)CCc1c(I)cc(C)c(O)c1C(=O)O)[C@H]1O[C@](CC)([C@H]2CC[C@](O)(CC)[C@H](C)O2)C[C@@H]1C [IODOLASALOCID] | 3.19 | – | 3.9 | 1
7 | CC[C@@H](C(=O)[C@@H](C)[C@@H](O)[C@H](C)CCc1c(NC(C)=O)cc(C)c(O)c1C(=O)O)[C@H]1O[C@](CC)([C@H]2CC[C@](O)(CC)[C@H](C)O2)C[C@@H]1C | 1.04 | 0 | 4.3 | –
8 | CC[C@@H](C(=O)[C@@H](C)[C@@H](O)[C@H](C)CCc1c([N+]#N)cc(C)c(O)c1C(=O)O)[C@H]1O[C@](CC)([C@H]2CC[C@](O)(CC)[C@H](C)O2)C[C@@H]1C [DIAZOLASALOCID] | – | 0 | 6.6 | –
9 | CCCCC(=O)Oc1c(C)ccc(CC[C@@H](C)[C@H](O)[C@H](C)C(=O)[C@H](CC)[C@H]2O[C@](CC)([C@H]3CC[C@](O)(CC)[C@H](C)O3)C[C@@H]2C)c1C(=O)O | 2.08 | 0 | – | –
10 | CC[C@@H](C(=O)[C@@H](C)[C@@H](O)[C@H](C)CCc1c([N+](=O)[O-])cc(C)c(O)c1C(=O)O)[C@H]1O[C@](CC)([C@H]2CC[C@](O)(CC)[C@H](C)O2)C[C@@H]1C | 2.46 | 0 | 2.4 | –
11 | CC[C@@H](C(=O)[C@@H](C)[C@@H](O)[C@H](C)CCc1ccc(C)c(OC(=O)c2ccc(Br)cc2)c1C(=O)O)[C@H]1O[C@](CC)([C@H]2CC[C@](O)(CC)[C@H](C)O2)C[C@@H]1C | 3.48 | 0 | – | –
12 | CC[C@@H](C(=O)[C@@H](C)[C@@H](O)[C@H](C)CCc1c(Br)cc(C)c(O)c1C(=O)O)[C@H]1O[C@](CC)([C@H]2CC[C@](O)(CC)[C@H](C)O2)C[C@@H]1C [BROMOLASALOCID] | 3.25 | – | 3.9 | 1
13 | CCCCCCCC(=O)Oc1c(C)ccc(CC[C@@H](C)[C@H](O)[C@H](C)C(=O)[C@H](CC)[C@H]2O[C@](CC)([C@H]3CC[C@](O)(CC)[C@H](C)O3)C[C@@H]2C)c1C(=O)O | 2.21 | 0 | – | –
